As usually defined, the solubility is how much of the substance goes into solution per volume.

In series [1] the target is NAD(P)H dehydrogenase [quinone] 1 (Homo sapiens) (UniProt P15559). The experiment in a line: Substrate activity at recombinant human NQO1 assessed as enzyme activity by measuring oxidation of NADPH incubated for 5 mins measured per micromol of NADPH by NADPH recycling assay.
The test system of series [2] is A549. The experiment in a line: Antitumor activity against human A549 cells xenografted in BALB/c nude mouse assessed as tumor volume change at 30 mg/kg, ip administered for 21 days. The format is functional. As to conditions: time 21 day; call rule not given here. Background: A xenograft is tissue or cells of one species grown in another, often human tumour cells in immunodeficient mice.

The subject of series [3] is A549. The experiment in a line: Antitumor activity against human A549 cells xenografted in BALB/c nude mouse assessed as tumor inhibition rate at 30 mg/kg, ip administered for 21 days. The format is functional. On the set-up: scale not given: the % may be the effect or the level left. The settings on record: time 21 day.
In series [4] the test system is A549. The experiment in a line: Antitumor activity against human A549 cells xenografted in BALB/c nude mouse assessed as fluorescence intensity at 30 mg/kg, ip administered for 21 days. Format: functional. As to conditions: time 21 day.
A short description of series [5]: Stability of compound in PBS at pH 4 to 9 assessed as compound remaining at 37 degree C measured after 24 hrs by HPLC analysis. Format: physicochemical. As to conditions: buffer, pH 4, 24 h.
Series [6] is described as follows: Water solubility of compound by HPLC analysis. The format is physicochemical.
Series [7] in a line: Drug uptake in NQO1-deficient human NCI-H596 cells at 10 uM incubated for 20 mins by confocal microscopy. Format: ADME, cell-based. The settings on record: nci-h596, 20 min.
A short description of series [8]: Drug uptake in NQO1 rich human A549 cells at 10 uM incubated for 20 mins by confocal microscopy. Format: ADME, cell-based. As to conditions: a549, 20 min.
A short description of series [9]: Stability of compound in human plasma assessed as compound remaining at 37 degree C measured after 24 hrs by HPLC analysis. Format: ADME, cell-free.
In series [10] the test system is A549. The experiment in a line: Cytotoxicity against human A549 cells assessed as growth inhibition measured after 72 hrs by MTT assay. The format is functional. On the set-up: scale not given: the % may be the effect or the level left. In general terms: Formazan colour is commonly taken as a measure of viable cells.
A short description of series [11]: Stability of compound in rat plasma assessed as compound remaining at 37 degree C measured after 24 hrs by HPLC analysis. Format: ADME, cell-free.
Series [12] in a line: Drug uptake in BALB/c nude mouse infected with human A549 cells at 5 mg/kg, iv measured upto 15 mins by fluorescence spectrophotometric analysis. The format is ADME, organism-based. As to conditions: in vivo, 0.25 h.
A short description of series [13]: Stability of compound in mouse plasma assessed as compound remaining at 37 degree C measured after 24 hrs by HPLC analysis. The format is ADME, cell-free.

SMILES strings stand for the structures. ≈ marks a conversion by molar mass, not a printed value. Where only a bound is given, the exact number is not on record here.

Chain of NAD(P)H dehydrogenase [quinone] 1 (Homo sapiens) (P15559 whole entry): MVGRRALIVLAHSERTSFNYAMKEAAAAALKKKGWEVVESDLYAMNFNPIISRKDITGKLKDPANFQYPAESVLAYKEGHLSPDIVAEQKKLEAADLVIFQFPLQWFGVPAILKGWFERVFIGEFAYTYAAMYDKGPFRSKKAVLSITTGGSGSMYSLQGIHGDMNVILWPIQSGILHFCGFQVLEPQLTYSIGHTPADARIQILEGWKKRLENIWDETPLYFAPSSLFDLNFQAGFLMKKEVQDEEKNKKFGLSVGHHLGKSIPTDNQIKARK

Take `CC(C)(CC(=O)O)C1=CC(=O)c2ccccc2C1=O`: in [1], the Activity came out at 1220 µmol/min.

`Cc1cc2c(cc1C)-c1oc(CN3CCN(C)CC3)c(C)c1C(=O)C2=O`: the Activity in [2] was found to be 77%; in series [3], 79.8%.

For `CC1=C(C(C)(C)CC(=O)O)C(=O)c2ccccc2C1=O`, the Activity in [1] amounted to 1480 µmol/min.

On to `CC1=C(C)C(=O)C(C(C)(C)CC(=O)O)=C(C)C1=O`, for which the Activity in series [1] is 1070 µmol/min.

For the compound `O=c1[nH]cc(F)c(=O)[nH]1` [FLUOROURACIL], in series [4], the Activity was 75.7%.

For `CC1(C)CCC2=C(O1)c1ccccc1C(=O)C2=O` [LAPACHONE], the Activity is 69.1% in series [2] and 67.7% in series [3].

In the case of `CC1=C(C(C)(C)CC(=O)N(C)c2ccc(COC(=O)N3c4ccc(N(C)C)cc4Sc4cc(N(C)C)ccc43)cc2)C(=O)c2ccccc2C1=O`, the Stability result in series [5], in [9], in series [11] and in series [13] was “Stable” each time. Besides, the Activity is 75.6% in series [4] and greater than 80% in series [10]. The solubility in series [6] worked out at 6.5 µg/mL (≈ 9.25 µM). The Drug uptake result in [7] was “Not Active”; in [8] it was “Active”; in series [12], “Active”.

For `O=C(O)CCC1=CC(=O)c2ccccc2C1=O`, in [1], the Activity amounted to 900 µmol/min.

As to `CC1=C(C)C(=O)C(C(C)(C)CC(=O)N(C)c2ccc(COC(=O)N3c4ccc(N(C)C)cc4Sc4cc(N(C)C)ccc43)cc2)=C(C)C1=O`, the Drug uptake result in series [12] was “Not Active”.

As for `CC1=C(CCC(=O)O)C(=O)c2ccccc2C1=O`, the Activity in series [1] was 1080 µmol/min.

(Values after ChEMBL document CHEMBL5053491, “Rational designed highly sensitive NQO1-activated near-infrared fluorescent probe combined with NQO1 substrates in vivo: An innovative strategy for NQO1-overexpressing cancer theranostics” (Eur J Med Chem, 2021).)
